Assay results published in ChEMBL document CHEMBL1201862, “PubChem BioAssay data set” (2004).
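Step 1: Grow cells in 96-well plates. Step 2: Expose to compound for 48 hours at 5 concentrations. Step 3: Interpolate endpoints linearly; if unreached, use highest concentration. GI50 is the concentration that inhibits growth by half.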 The source made the active and inactive calls. No stated cut-off is given here; in the data, active = GI50 up to about 1.1 µM and inactive = higher.

Experiments:
Experiment in all cases: growth of human tumour cells (NCI), 48 h
[1] = test system: 786-0
[2] = test system: A498
[3] = test system: A549
[4] = test system: ACHN
[5] = test system: BT-549
[6] = test system: CAKI-1
[7] = test system: CCRF-CEM
[8] = test system: COLO 205
[9] = test system: DU-145
[10] = test system: EKVX
[11] = test system: HCT-116
[12] = test system: HCT-15
[13] = test system: HL-60
[14] = test system: HOP-92
[15] = test system: HT-29
[16] = test system: IGROV-1
[17] = test system: K562
[18] = test system: KM12
[19] = test system: LOX IMVI
[20] = test system: M14
[21] = test system: MDA-MB-231
[22] = test system: MDA-MB-435
[23] = test system: MDA-N
[24] = test system: MOLT-4
[25] = test system: Malme-3M
[26] = test system: NCI-H226
[27] = test system: NCI-H23
[28] = test system: NCI-H460
[29] = test system: NCI-H522
[30] = test system: NCI/ADR-RES
[31] = test system: OVCAR-3
[32] = test system: OVCAR-4
[33] = test system: OVCAR-5
[34] = test system: OVCAR-8
[35] = test system: PC-3
[36] = test system: RPMI-8226
[37] = test system: RXF 393
[38] = test system: SF-268
[39] = test system: SF-295
[40] = test system: SF-539
[41] = test system: SK-MEL-28
[42] = test system: SK-MEL-2
[43] = test system: SK-MEL-5
[44] = test system: SK-OV-3
[45] = test system: SN12C
[46] = test system: SNB-19
[47] = test system: SNB-75
[48] = test system: SW-620
[49] = test system: T47D
[50] = test system: TK-10
[51] = test system: U-251
[52] = test system: UACC-257
[53] = test system: UACC-62
[54] = test system: UO-31
[55] = test system: HCC 2998
[56] = test system: HOP-62
[57] = test system: Hs-578T
[58] = test system: MCF7
[59] = test system: SR

In the case of `CCOC(=O)c1ccc(-c2cc(C)no2)[nH]1`, the GI50 [1] is reported as > 100 µM (inactive), the GI50 [2] is reported as 63.7 µM (inactive) and the GI50 [3] is reported as 51.5 µM (inactive). The GI50 [4] was > 100 µM (inactive), the GI50 [5] was > 100 µM (inactive) and the GI50 [6] was 28.8 µM (inactive). The GI50 [7] was > 100 µM (inactive), the GI50 [8] was 40 µM (inactive) and the GI50 [9] was > 100 µM (inactive). For the same compound, the GI50 [10] was 41.7 µM (inactive), the GI50 [11] was 75.3 µM (inactive) and the GI50 [12] was 30.2 µM. For the same compound, the GI50 [13] was 67.5 µM (inactive), the GI50 [14] was > 100 µM (inactive) and the GI50 [15] was > 100 µM (inactive). The GI50 [16] was > 100 µM (inactive), the GI50 [17] was 32.5 µM (inactive) and the GI50 [18] was 31.8 µM (inactive). The GI50 [19] was > 100 µM (inactive), the GI50 [20] was > 100 µM (inactive) and the GI50 [21] was 76 µM (inactive). The GI50 [22] was 11.4 µM (inactive), the GI50 [23] was 22 µM (inactive) and the GI50 [24] was 42.1 µM (inactive). The GI50 [25] was > 100 µM (inactive), the GI50 [26] was > 100 µM (inactive) and the GI50 [27] was > 100 µM (inactive). The GI50 [28] was 33.8 µM (inactive), the GI50 [29] was 76.2 µM (inactive) and the GI50 [30] was 46.7 µM (inactive). For the same compound, the GI50 [31] was 81.8 µM (inactive), the GI50 [32] was 74.6 µM (inactive) and the GI50 [33] was > 100 µM (inactive). The GI50 [34] was > 100 µM (inactive), the GI50 [35] was 83.8 µM (inactive) and the GI50 [36] was > 100 µM (inactive). The GI50 [37] was > 100 µM (inactive), the GI50 [38] was > 100 µM (inactive) and the GI50 [39] was > 100 µM (inactive). The GI50 [40] was > 100 µM (inactive), the GI50 [41] was > 100 µM (inactive) and the GI50 [42] was > 100 µM (inactive). The GI50 [43] was 81.3 µM (inactive), the GI50 [44] was > 100 µM (inactive) and the GI50 [45] was 33 µM (inactive). The GI50 [46] was > 100 µM (inactive), the GI50 [47] was 60.1 µM (inactive) and the GI50 [48] was 45.3 µM (inactive). For the same compound, the GI50 [49] was 68.5 µM (inactive), the GI50 [50] was > 100 µM (inactive) and the GI50 [51] was 98.4 µM (inactive). For the same compound, the GI50 [52] was > 100 µM (inactive), the GI50 [53] was 59.8 µM (inactive) and the GI50 [54] was > 100 µM (inactive).
For `CC1=C(C(=O)Nc2cccc3c2C(=O)NC3=O)CC(C(=O)Nc2cccc3c2C(=O)NC3=O)=C(C)N1`, the GI50 [1] was > 100 µM (inactive), the GI50 [2] was > 100 µM (inactive) and the GI50 [3] was > 100 µM (inactive). For the same compound, the GI50 [4] was > 100 µM (inactive), the GI50 [5] was > 100 µM (inactive) and the GI50 [6] was > 100 µM (inactive). The GI50 [7] was > 100 µM (inactive), the GI50 [8] was 40.7 µM (inactive) and the GI50 [9] was > 100 µM (inactive). For the same compound, the GI50 [10] was > 100 µM (inactive), the GI50 [55] was 95.5 µM (inactive) and the GI50 [11] was > 100 µM (inactive). The GI50 [12] was over 100 µM, the GI50 [13] was > 100 µM (inactive) and the GI50 [56] was > 100 µM (inactive). The GI50 [14] was > 100 µM (inactive), the GI50 [57] was > 100 µM (inactive) and the GI50 [16] was > 100 µM (inactive). For the same compound, the GI50 [17] was > 100 µM (inactive), the GI50 [18] was > 100 µM (inactive) and the GI50 [19] was > 100 µM (inactive). For the same compound, the GI50 [20] was > 100 µM (inactive), the GI50 [58] was > 100 µM (inactive) and the GI50 [21] was > 100 µM (inactive). For the same compound, the GI50 [22] was > 100 µM (inactive), the GI50 [23] was > 100 µM (inactive) and the GI50 [24] was > 100 µM (inactive). For the same compound, the GI50 [25] was > 100 µM (inactive), the GI50 [27] was > 100 µM (inactive) and the GI50 [28] was > 100 µM (inactive). For the same compound, the GI50 [29] was > 100 µM (inactive), the GI50 [31] was > 100 µM (inactive) and the GI50 [32] was > 100 µM (inactive). The GI50 [33] was > 100 µM (inactive), the GI50 [35] was > 100 µM (inactive) and the GI50 [36] was > 100 µM (inactive). The GI50 [37] was > 100 µM (inactive), the GI50 [38] was > 100 µM (inactive) and the GI50 [39] was > 100 µM (inactive). The GI50 [40] was > 100 µM (inactive), the GI50 [41] was > 100 µM (inactive) and the GI50 [42] was > 100 µM (inactive). The GI50 [43] was > 100 µM (inactive), the GI50 [44] was > 100 µM (inactive) and the GI50 [45] was > 100 µM (inactive). For the same compound, the GI50 [46] was > 100 µM (inactive), the GI50 [47] was 88.3 µM (inactive) and the GI50 [59] was > 100 µM (inactive). For the same compound, the GI50 [48] was > 100 µM (inactive), the GI50 [49] was > 100 µM (inactive) and the GI50 [50] was > 100 µM (inactive). The GI50 [51] was > 100 µM (inactive), the GI50 [52] was > 100 µM (inactive) and the GI50 [53] was > 100 µM (inactive). The GI50 [54] was > 100 µM (inactive).
